Data taken from patent publication US8580709B2, “Plant growth regulation” (Syngenta Crop Protection, LLC, priority 2009, dated 2013).

What was measured:
Format in all cases: in vivo
Spring-barley Pasadena = experiment: Plant growth regulation on cereals, greenhouse spray, visual shoot growth reduction; conditions: 13 days after application, growth stage 30-32, vs untreated control
Protocol: (§1) Plants were grown under greenhouse conditions and sprayed at growth stage 30-32 (start of stem elongation) of cereal plants with a boom sprayer. Trinexapac-ethyl (treatment A) was applied as Moddus® ME250 formulation, and Prohexadione-Ca (treatment B) was applied as Viviful® WG10 formulation with a standard flat fan nozzle at 200 l/ha spray volume. 13 days after application the plant growth reduction (% GR) of the shoot (leaves and stem) was evaluated visually compared to the untreated control. The expected plant growth reduction was calculated according to Colby (Colby 1967, Weeds 15, 20-22) and compared to evaluation data of sprayed plants.

Spring-wheat Lona = experiment: as above; conditions: 13 days after application, growth stage 30-32, vs untreated control
Protocol: as §1

Winter-barley Hasso = experiment: as above; conditions: 13 days after application, growth stage 30-32, vs untreated control
Protocol: as §1

Winter-wheat Arina = experiment: as above; conditions: 13 days after application, growth stage 30-32, vs untreated control
Protocol: as §1

Corn ECO5133 = experiment: Plant growth regulation on corn, greenhouse spray, visual shoot growth reduction; conditions: 33 days after application, growth stage 13, vs untreated control
Protocol: as §1, with “Corn plants of 4 different varieties” for “Plants”, “13 (3 leaves unfolded)” for “30-32 (start of stem elongation) of cereal plants”, “Trinexapac-ethyl” for “Trinexapac-ethyl (treatment A)”, “Prohexadion-Ca” for “Prohexadione-Ca (treatment B)”, “WG 10” for “WG10”, “33” for “13”

Corn LG22.65 = experiment: as above; conditions: 33 days after application, growth stage 13, vs untreated control
Protocol: as §1, with “Corn plants of 4 different varieties” for “Plants”, “13 (3 leaves unfolded)” for “30-32 (start of stem elongation) of cereal plants”, “Trinexapac-ethyl” for “Trinexapac-ethyl (treatment A)”, “Prohexadion-Ca” for “Prohexadione-Ca (treatment B)”, “WG 10” for “WG10”, “33” for “13”

Corn Maeva = experiment: as above; conditions: 33 days after application, growth stage 13, vs untreated control
Protocol: as §1, with “Corn plants of 4 different varieties” for “Plants”, “13 (3 leaves unfolded)” for “30-32 (start of stem elongation) of cereal plants”, “Trinexapac-ethyl” for “Trinexapac-ethyl (treatment A)”, “Prohexadion-Ca” for “Prohexadione-Ca (treatment B)”, “WG 10” for “WG10”, “33” for “13”

Corn Ronaldinio = experiment: as above; conditions: 33 days after application, growth stage 13, vs untreated control
Protocol: as §1, with “Corn plants of 4 different varieties” for “Plants”, “13 (3 leaves unfolded)” for “30-32 (start of stem elongation) of cereal plants”, “Trinexapac-ethyl” for “Trinexapac-ethyl (treatment A)”, “Prohexadion-Ca” for “Prohexadione-Ca (treatment B)”, “WG 10” for “WG10”, “33” for “13”

Row | Structure (SMILES) | % GR (plant growth reduction of the shoot) (Spring-barley Pasadena; 25 g a.i./ha) [%] | % GR (plant growth reduction of the shoot) (Spring-barley Pasadena; 50 g a.i./ha) [%] | % GR (plant growth reduction of the shoot) (Spring-wheat Lona; 25 g a.i./ha) [%] | % GR (plant growth reduction of the shoot) (Spring-wheat Lona; 50 g a.i./ha) [%] | % GR (plant growth reduction of the shoot) (Winter-barley Hasso; 25 g a.i./ha) [%] | % GR (plant growth reduction of the shoot) (Winter-barley Hasso; 50 g a.i./ha) [%] | % GR (plant growth reduction of the shoot) (Winter-wheat Arina; 25 g a.i./ha) [%] | % GR (plant growth reduction of the shoot) (Winter-wheat Arina; 50 g a.i./ha) [%] | % GR (plant growth reduction of the shoot) (Corn ECO5133; 25 g a.i./ha) [%] | % GR (plant growth reduction of the shoot) (Corn ECO5133; 50 g a.i./ha) [%] | % GR (plant growth reduction of the shoot) (Corn ECO5133; 100 g a.i./ha) [%] | % GR (plant growth reduction of the shoot) (Corn LG22.65; 25 g a.i./ha) [%] | % GR (plant growth reduction of the shoot) (Corn LG22.65; 50 g a.i./ha) [%] | % GR (plant growth reduction of the shoot) (Corn LG22.65; 100 g a.i./ha) [%] | % GR (plant growth reduction of the shoot) (Corn Maeva; 25 g a.i./ha) [%] | % GR (plant growth reduction of the shoot) (Corn Maeva; 50 g a.i./ha) [%] | % GR (plant growth reduction of the shoot) (Corn Maeva; 100 g a.i./ha) [%] | % GR (plant growth reduction of the shoot) (Corn Ronaldinio; 25 g a.i./ha) [%] | % GR (plant growth reduction of the shoot) (Corn Ronaldinio; 50 g a.i./ha) [%] | % GR (plant growth reduction of the shoot) (Corn Ronaldinio; 100 g a.i./ha) [%]
1 | CCC(=O)C1=C([O-])CC(C(=O)[O-])CC1=O.[Ca+2] (stereo not shown) [B, Prohexadione-Ca] | 0.0 | 1.7 | 0.0 | 3.3 | 0.0 | 5.0 | 0.0 | 3.3 | 0.0 | 0.0 | 0.0 | 0.0 | 1.7 | 13.3 | 1.7 | 5.0 | 18.3 | 0.0 | 0.0 | 1.7
2 | CCOC(=O)C1CC(=O)C(=C(O)C2CC2)C(=O)C1 (stereo not shown) [A, Trinexapac-ethyl] | 0.0 | 0.0 | 1.7 | 3.3 | 0.0 | 5.0 | 0.0 | 5.0 | 1.7 | 1.7 | 6.7 | 0.0 | 3.3 | 11.7 | 1.7 | 3.3 | 6.7 | 0.0 | 0.0 | 3.3
